# Measurements published in ChEMBL document CHEMBL1201862, “PubChem BioAssay data set” (2004).
#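 Interpolation was linear, between the two tested concentrations surrounding the appropriate level; five concentrations were tested over 48 hours in 96-well plates. At the GI50, growth is halved.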 Calls of active or inactive are those of the source. Rule as the data show it: active = GI50 up to about 1.1 µM and inactive = higher.
# Legend:
# Assay in all cases: inhibition of tumour cell growth, NCI panel, 48 h
# T47D = test system: T47D
# OVCAR-5 = test system: OVCAR-5
# DU-145 = test system: DU-145
# M14 = test system: M14
# NCI-H226 = test system: NCI-H226
# NCI-H522 = test system: NCI-H522
# NCI/ADR-RES = test system: NCI/ADR-RES
# ACHN = test system: ACHN
# KM12 = test system: KM12
# 786-0 = test system: 786-0
# HT-29 = test system: HT-29
# NCI-H23 = test system: NCI-H23
# PC-3 = test system: PC-3
# Malme-3M = test system: Malme-3M
# UACC-62 = test system: UACC-62
# SW-620 = test system: SW-620
# SF-295 = test system: SF-295
# OVCAR-8 = test system: OVCAR-8
# HCT-116 = test system: HCT-116
# MDA-N = test system: MDA-N
# CCRF-CEM = test system: CCRF-CEM
# MCF7 = test system: MCF7
# SF-268 = test system: SF-268
# Hs-578T = test system: Hs-578T
# UO-31 = test system: UO-31
# HOP-92 = test system: HOP-92
# SK-MEL-5 = test system: SK-MEL-5
# TK-10 = test system: TK-10
# K562 = test system: K562
# RPMI-8226 = test system: RPMI-8226
# NCI-H460 = test system: NCI-H460
# SNB-19 = test system: SNB-19
# A498 = test system: A498
# OVCAR-3 = test system: OVCAR-3
# SN12C = test system: SN12C
# COLO 205 = test system: COLO 205
# LOX IMVI = test system: LOX IMVI
# HOP-62 = test system: HOP-62
# IGROV-1 = test system: IGROV-1
# UACC-257 = test system: UACC-257
# OVCAR-4 = test system: OVCAR-4
# HL-60 = test system: HL-60
# BT-549 = test system: BT-549
# SK-MEL-28 = test system: SK-MEL-28
# RXF 393 = test system: RXF 393
# U-251 = test system: U-251
# A549 = test system: A549
# MDA-MB-231 = test system: MDA-MB-231
# CAKI-1 = test system: CAKI-1
# MDA-MB-435 = test system: MDA-MB-435
# MOLT-4 = test system: MOLT-4
# HCT-15 = test system: HCT-15
# SK-MEL-2 = test system: SK-MEL-2
# SF-539 = test system: SF-539
# SNB-75 = test system: SNB-75
# SK-OV-3 = test system: SK-OV-3
# EKVX = test system: EKVX
# SR = test system: SR
smiles,measurement,setting,value
O=C1NC(=O)C(C(c2ccc([N+](=O)[O-])cc2)C2C(=O)NC(=O)NC2=O)C(=O)N1,GI50,T47D,> 100 µM (inactive)
same,GI50,OVCAR-5,> 100 µM (inactive)
same,GI50,DU-145,> 100 µM (inactive)
same,GI50,M14,> 100 µM (inactive)
same,GI50,NCI-H226,> 100 µM (inactive)
same,GI50,NCI-H522,> 100 µM (inactive)
same,GI50,NCI/ADR-RES,> 100 µM (inactive)
same,GI50,ACHN,> 100 µM (inactive)
same,GI50,KM12,> 100 µM (inactive)
same,GI50,786-0,> 100 µM (inactive)
same,GI50,HT-29,> 100 µM (inactive)
same,GI50,NCI-H23,> 100 µM (inactive)
same,GI50,PC-3,> 100 µM (inactive)
same,GI50,Malme-3M,55.8 µM (inactive)
same,GI50,UACC-62,> 100 µM (inactive)
same,GI50,SW-620,> 100 µM (inactive)
same,GI50,SF-295,> 100 µM (inactive)
same,GI50,OVCAR-8,> 100 µM (inactive)
same,GI50,HCT-116,> 100 µM (inactive)
same,GI50,MDA-N,> 100 µM (inactive)
same,GI50,CCRF-CEM,62.1 µM (inactive)
same,GI50,MCF7,> 100 µM (inactive)
same,GI50,SF-268,22.5 µM (inactive)
same,GI50,Hs-578T,> 100 µM (inactive)
same,GI50,UO-31,> 100 µM (inactive)
same,GI50,HOP-92,> 100 µM (inactive)
same,GI50,SK-MEL-5,> 100 µM (inactive)
same,GI50,TK-10,> 100 µM (inactive)
same,GI50,K562,> 100 µM (inactive)
same,GI50,RPMI-8226,> 100 µM (inactive)
same,GI50,NCI-H460,> 100 µM (inactive)
same,GI50,SNB-19,> 100 µM (inactive)
same,GI50,A498,> 100 µM (inactive)
same,GI50,OVCAR-3,> 100 µM (inactive)
same,GI50,SN12C,> 100 µM (inactive)
same,GI50,COLO 205,> 100 µM (inactive)
same,GI50,LOX IMVI,> 100 µM (inactive)
same,GI50,HOP-62,> 100 µM (inactive)
same,GI50,IGROV-1,> 100 µM (inactive)
same,GI50,UACC-257,> 100 µM (inactive)
same,GI50,OVCAR-4,> 100 µM (inactive)
same,GI50,HL-60,> 100 µM (inactive)
same,GI50,BT-549,> 100 µM (inactive)
same,GI50,SK-MEL-28,> 100 µM (inactive)
same,GI50,RXF 393,> 100 µM (inactive)
same,GI50,U-251,> 100 µM (inactive)
same,GI50,A549,> 100 µM (inactive)
same,GI50,MDA-MB-231,> 100 µM (inactive)
same,GI50,CAKI-1,> 100 µM (inactive)
same,GI50,MDA-MB-435,> 100 µM (inactive)
same,GI50,MOLT-4,> 100 µM (inactive)
same,GI50,HCT-15,> 100 µM
same,GI50,SK-MEL-2,> 100 µM (inactive)
O=C(CCCN1CCC2(CC1)CC(=O)N(N1CCOCC1)C2=O)c1ccc(F)cc1,GI50,T47D,> 100 µM (inactive)
same,GI50,OVCAR-5,> 100 µM (inactive)
same,GI50,DU-145,> 100 µM (inactive)
same,GI50,M14,> 100 µM (inactive)
same,GI50,NCI-H226,99.3 µM (inactive)
same,GI50,NCI-H522,> 100 µM (inactive)
same,GI50,NCI/ADR-RES,> 100 µM (inactive)
same,GI50,ACHN,> 100 µM (inactive)
same,GI50,KM12,> 100 µM (inactive)
same,GI50,786-0,> 100 µM (inactive)
same,GI50,HT-29,> 100 µM (inactive)
same,GI50,NCI-H23,> 100 µM (inactive)
same,GI50,PC-3,> 100 µM (inactive)
same,GI50,Malme-3M,> 100 µM (inactive)
same,GI50,UACC-62,> 100 µM (inactive)
same,GI50,SW-620,> 100 µM (inactive)
same,GI50,SF-295,> 100 µM (inactive)
same,GI50,OVCAR-8,> 100 µM (inactive)
same,GI50,HCT-116,> 100 µM (inactive)
same,GI50,MDA-N,> 100 µM (inactive)
same,GI50,CCRF-CEM,> 100 µM (inactive)
same,GI50,MCF7,> 100 µM (inactive)
same,GI50,SF-268,> 100 µM (inactive)
same,GI50,Hs-578T,> 100 µM (inactive)
same,GI50,UO-31,> 100 µM (inactive)
same,GI50,SF-539,> 100 µM (inactive)
same,GI50,SNB-75,> 100 µM (inactive)
same,GI50,SK-MEL-5,> 100 µM (inactive)
same,GI50,TK-10,> 100 µM (inactive)
same,GI50,K562,> 100 µM (inactive)
same,GI50,RPMI-8226,> 100 µM (inactive)
same,GI50,NCI-H460,> 100 µM (inactive)
same,GI50,SNB-19,> 100 µM (inactive)
same,GI50,A498,> 100 µM (inactive)
same,GI50,OVCAR-3,> 100 µM (inactive)
same,GI50,SN12C,> 100 µM (inactive)
same,GI50,COLO 205,> 100 µM (inactive)
same,GI50,LOX IMVI,> 100 µM (inactive)
same,GI50,HOP-62,> 100 µM (inactive)
same,GI50,IGROV-1,> 100 µM (inactive)
same,GI50,SK-OV-3,> 100 µM (inactive)
same,GI50,UACC-257,> 100 µM (inactive)
same,GI50,HL-60,> 100 µM (inactive)
same,GI50,BT-549,> 100 µM (inactive)
same,GI50,SK-MEL-28,> 100 µM (inactive)
same,GI50,RXF 393,> 100 µM (inactive)
same,GI50,U-251,> 100 µM (inactive)
same,GI50,A549,> 100 µM (inactive)
same,GI50,MDA-MB-231,> 100 µM (inactive)
same,GI50,CAKI-1,> 100 µM (inactive)
same,GI50,MDA-MB-435,> 100 µM (inactive)
same,GI50,MOLT-4,> 100 µM (inactive)
same,GI50,HCT-15,> 100 µM
same,GI50,SK-MEL-2,> 100 µM (inactive)
Cc1[nH]c2[nH]c(=S)nc(NC(N)=S)c2c1Cc1ccccc1,GI50,T47D,21.8 µM (inactive)
same,GI50,OVCAR-5,> 100 µM (inactive)
same,GI50,DU-145,49.5 µM (inactive)
same,GI50,M14,42.3 µM (inactive)
same,GI50,NCI-H226,> 100 µM (inactive)
same,GI50,NCI/ADR-RES,48.8 µM (inactive)
same,GI50,ACHN,> 100 µM (inactive)
same,GI50,KM12,16.4 µM (inactive)
same,GI50,786-0,26.8 µM (inactive)
same,GI50,EKVX,48.4 µM (inactive)
same,GI50,HT-29,22.3 µM (inactive)
same,GI50,NCI-H23,29.7 µM (inactive)
same,GI50,PC-3,47 µM (inactive)
same,GI50,UACC-62,29.9 µM (inactive)
same,GI50,SW-620,34 µM (inactive)
same,GI50,SF-295,35.2 µM (inactive)
same,GI50,OVCAR-8,51.9 µM (inactive)
same,GI50,HCT-116,31.8 µM (inactive)
same,GI50,MDA-N,22.7 µM (inactive)
same,GI50,CCRF-CEM,21.9 µM (inactive)
same,GI50,MCF7,38.1 µM (inactive)
same,GI50,SF-268,43.8 µM (inactive)
same,GI50,Hs-578T,18.9 µM (inactive)
same,GI50,UO-31,22.8 µM (inactive)
same,GI50,SF-539,37.2 µM (inactive)
same,GI50,HOP-92,> 100 µM (inactive)
same,GI50,SNB-75,31.9 µM (inactive)
same,GI50,SK-MEL-5,13.4 µM (inactive)
same,GI50,TK-10,62.8 µM (inactive)
same,GI50,K562,25.9 µM (inactive)
same,GI50,RPMI-8226,12.7 µM (inactive)
same,GI50,SR,11.5 µM (inactive)
same,GI50,NCI-H460,48.6 µM (inactive)
same,GI50,SNB-19,97.9 µM (inactive)
same,GI50,A498,> 100 µM (inactive)
same,GI50,OVCAR-3,28 µM (inactive)
same,GI50,SN12C,> 100 µM (inactive)
same,GI50,COLO 205,15.1 µM (inactive)
same,GI50,LOX IMVI,19.6 µM (inactive)
same,GI50,HOP-62,47 µM (inactive)
same,GI50,IGROV-1,59 µM (inactive)
same,GI50,SK-OV-3,76 µM (inactive)
same,GI50,UACC-257,54.3 µM (inactive)
same,GI50,HL-60,13.6 µM (inactive)
same,GI50,BT-549,14.3 µM (inactive)
same,GI50,SK-MEL-28,21.9 µM (inactive)
same,GI50,U-251,43.9 µM (inactive)
same,GI50,A549,75.5 µM (inactive)
same,GI50,MDA-MB-231,28.1 µM (inactive)
same,GI50,CAKI-1,98.6 µM (inactive)
same,GI50,MDA-MB-435,17.3 µM (inactive)
same,GI50,MOLT-4,23.4 µM (inactive)
same,GI50,HCT-15,58.6 µM
same,GI50,SK-MEL-2,93.1 µM (inactive)
